Experimental data reported in PubChem BioAssay (NCI).
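96-well plates; 48 h exposure; 5 concentrations. Endpoints by linear interpolation between flanking doses. Not reached: highest tested concentration assigned. Here, GI50 denotes the concentration required for 50% inhibition of growth. TGI is the concentration that stops growth completely.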

Experiments:
Test in all cases: growth of human tumour cells (NCI), 48 h
A549 NSCLC = system: A549 NSCLC
HOP-92 NSCLC = system: HOP-92 NSCLC
LOX IMVI melanoma = system: LOX IMVI melanoma
M14 melanoma = system: M14 melanoma
MALME-3M melanoma = system: MALME-3M melanoma
SF-539 CNS = system: SF-539 CNS
SW-620 colon = system: SW-620 colon
U251 CNS = system: U251 CNS
UACC-62 melanoma = system: UACC-62 melanoma
MDA-MB-231 breast = system: MDA-MB-231 breast

Structure (SMILES)	TGI (A549 NSCLC) [µM]	TGI (HOP-92 NSCLC) [µM]	TGI (LOX IMVI melanoma) [µM]	TGI (M14 melanoma) [µM]	TGI (MALME-3M melanoma) [µM]	TGI (SF-539 CNS) [µM]	TGI (SW-620 colon) [µM]	TGI (U251 CNS) [µM]	TGI (UACC-62 melanoma) [µM]	GI50 (A549 NSCLC) [µM]	GI50 (HOP-92 NSCLC) [µM]	GI50 (M14 melanoma) [µM]	GI50 (SF-539 CNS) [µM]	GI50 (SW-620 colon) [µM]	GI50 (U251 CNS) [µM]	GI50 (UACC-62 melanoma) [µM]	TGI (MDA-MB-231 breast) [µM]	GI50 (LOX IMVI melanoma) [µM]	GI50 (MALME-3M melanoma) [µM]	GI50 (MDA-MB-231 breast) [µM]
CCC1CN2CCc3cc(OC)c(OC)cc3C2CC1CC1c2cc(OC)c(OC)cc2CCN1C(=O)C1CCCN1C(=O)OCc1ccccc1 (stereo unspecified)	39.2	22	29.1	30.9	32.4	33	28	28.3	29.7											
Cn1cnc2nc(Cl)nc(NC(C)(C)C(C)(C)O)c21	> 100	> 100		> 100	> 100	> 100	> 100	> 100	> 100											
CCN(C(=O)N1CCN(c2cc3c(cc2F)c(=O)c(C(=O)O)cn3C2CC2)CC1)c1nc(-c2ccc(C)cc2)cs1	> 100	2.8		> 100		2.65	> 100	> 20.9	> 100	0.42	0.708	0.928	0.356	0.653	1.04	0.837				
CCOC(=O)C1Oc2ccc([N+](=O)[O-])c3c2C1(O)CCC3 (stereo unspecified)	> 100	> 100	> 100	> 100	> 100	> 100	> 100	> 100	> 100											
COc1cc2c(cc1OC(=O)CC(C)O)C1C(OC2=O)C(OC(C)=O)C=C2CCN(C)[C@H]21 (stereo partly specified)	> 100	44.5	> 100	> 100		52.8	> 100	61.4	> 100											
CCCCNCC(=O)O[C@]1(CC)C(=O)OCc2c1cc1n(c2=O)Cc2cc3ccccc3nc2-1	26.7	12.3	1.43	7.23	30.5	0.849		4.49	0.925								> 100			
C=CCOC1OC(CO[Si](C)(C)C(C)(C)C)C(OCc2ccccc2)C(OCc2ccccc2)C1OCc1ccccc1 (stereo unspecified)	> 100	> 100	> 100	> 100	> 100		> 100	> 100	> 100											
O=C(O)C1(P(=O)(O)O)CC1	> 100			76.4	> 100	> 100	> 100	> 100	> 100											
O=C(C1CCCCC1)[C@@H]1[C@]2(C(=O)NC3CCCCC32)[C@@H]2CCCN2[C@@]12C(=O)NC1CCC(Cl)CC12 (stereo partly specified)	379		253	253	330	255	238	316	215	135		116	121	98.6	148	91.9	224	103	132	70.3
O=C1C(=O)N(c2ccc(Cl)c(Cl)c2)C(=O)C(=O)C1c1nc2ccccc2s1	> 100	> 100	> 100	> 100	> 100	> 100	> 100	> 100	> 100											
COc1cc2c(c(OC)c1OC)-c1ncc3cc(OC)c(OC)c(OC)c3c1C2	> 100	> 100	29.9	> 100			98.7	> 100	34	20.3	52.6	50.7		32.4	33	17.4	70.8	15.9		21.3
Cn1c2c(cc(S(=O)(=O)c3ccccc3)c1=O)CCc1c-2cnn1-c1ccc(Cl)cc1			17.3			3.4		3.98	5.07				1.87		2.1	2.35	5.27	4.09		2.24
Cc1c(C#N)c(=O)[nH]c(=O)n1CCN1CCN(C(=O)NCCCCCCNC(=O)N2CCN(CCn3c(C)c(C#N)c(=O)[nH]c3=O)CC2)CC1	> 100	> 100	> 100	> 100		> 100	> 100	> 100	> 100											
O=S(=O)(c1ccccc1)C(CN1CCCCC1)S(=O)(=O)c1ccccc1	> 100	> 100	> 100	> 100	> 100	> 100	> 100	> 100	> 100											
CS(=O)(=O)Oc1cccc(/C=N/N=C(\N)NO)c1	> 100	> 100		> 100	> 100	> 100	63.4	> 100	19.5											
C/C(=N\Nc1ccc2ccccc2n1)c1ccccn1	11.1		1.42	1.33	2.15	0.487	5.67	1.48	0.652	0.0841		0.0504	0.0768		0.0462	0.104	4.06	0.0627	0.0756	< 0.042
CCCCCCCCCCCC(=O)OCCOCCOCCOCCOCCOCc1ccc(OC)cc1	> 100	> 100	> 100	> 100	> 100		> 100	> 100	> 100											
CN(C)c1nc(=Nc2ccc3ccccc3c2)ss1	> 100			> 100	> 100	> 100	> 100	> 100	> 100											
CCOC(=O)C(C)(c1cn(C)c2ccccc12)c1cn(C)c2ccccc12	> 100			> 100	> 100	> 100	> 100	> 100	> 100											
COc1ccc(OC)c(NC(=O)CCC/C(CC(=O)c2ccc(O)c(OC)c2)=N\NC(=O)C[N+](C)(C)C)c1	> 100	> 100	> 100	> 100	> 100	> 100	> 100	> 100	> 100											
Clc1cc(Cl)c(OCC#CI)cc1Cl	31.4	37.1	2.74	5.41		12.8	3.88	29.6	19.4	16.8	15.1	2.13	2.94	1.76	15.4	5.05	28	1.33		13.5
